Measured values as given in patent US5786145A, “Oligonucleotide competitors for binding of HIV RRE to REV protein and assays for screening inhibitors of this binding” (Medical Research Council, priority 1995, dated 1998).

Assays:
Set-up in all cases: species or system HIV-1
[1] = system: rev protein; experiment: Scatchard analysis of RBC6 binding to rev (FIG. 14); settings: 0.6 nM labelled RBC6, 0-150 nM unlabelled RBC6, 24 nM rev; read-out: Kd (binding constant) from Scatchard plot
Method: (§1) Binding experiments were carried out using labelled RBC6 (SEQ ID NO:20 and SEQ ID NO:21) duplex formed frm the 5'-^32 P-labelled 14-mer oligoribonucleotide annealed to the 15 mer (0.6 nM) and 0-150 nM unlabelled RBC6 in the presence of 24 nM rev protein.
The mixtures for binding (0.5 ml) included 0.6 nM ^32 P-labelled RBC6 (SEQ ID NO:20 and SEQ ID NO:21) (ca. 20,000 cpm), 24 nM rev protein, varying concentrations (0-150 nM) of unlabelled RBC6 (SEQ ID NO:20 and SEQ ID NO:21) and 80 units/ml RNasin in TK buffer. The filter binding assays were carried out as described above, and a Scatchard plot (FIG. 14) was obtained from the results.

[2] = system: rev protein; experiment: Competition filter binding against 32P-labelled R7 (FIGS. 13, 17); settings: 1.5 nM labelled R7, 24 nM rev, 0-60 nM competitor
Method: In these experiments, uniformly ^32 P-labelled R7 (1.5 nM) was competed against 0-60 nM unlabelled competitor RNA in the presence of 24 nM rev protein.
The mixtures for competition binding (0.5 ml) included 1.5 nM ^32 P-labelled R7 (ca. 20,000 cpm), 24 nM rev protein, 1.5 ug/ml calf thymus DNA, 0.67 ug/ml yeast rRNA, varying concentrations (0-60 nM) of unlabelled competitor RNA and 80 units/ml RNasin in TK buffer (50 mM Tris-HCl (pH7.9) and 20 mM KCl). Binding was allowed to take place for more than 15 min on ice, and each mixture was passed through a Millipore GS filter (a 2.5 cm disk with a pore size of 0.22 um) prewashed twice with 0.6 ml of ice-cold TK buffer. The filter was washed with 0.6 ml of cold TK buffer and dried. The radioactivity retained on the filter was counted by liquid scintillation, and the results were plotted on a graph (FIG. 13).

[3] = system: rev protein; experiment: Saturation binding of rev protein to labelled RBC6 (FIG. 15); settings: 1.5 nM labelled RBC6, 0-50 nM rev; read-out: Kd from saturation binding, Scatchard plot
Method: as §1
The mixtures for binding (0.5 ml) included 1.5 nM ^32 P-labelled RBC6 (SEQ ID NO:20 and SEQ ID NO:21) (ca. 20,000 cpm), varying concentrations (0-50 nM) of rev protein and 80 units/ml RNasin in TK buffer. The filter binding assays were carried out as described above, and the results were plotted on a graph (FIG. 15).

Substance: RBC6: chemically synthesized RNA duplex (14-mer annealed to 15-mer), bubble with six base pairs on each side (chain 1 CGUGUGGGCGCAGC; chain 2 GCUGCGGUACACACG; RNA, backbone not given here)
- Kd [1]: ~3 nM
- competition for rev binding against labelled R7, result in words [2]: competed about half as well as R7
- Kd [3]: 3.8 nM
